# Measured values taken from patent US20190016703A1, “BIFUNCTIONAL COMPOUNDS FOR HER3 DEGRADATION AND METHODS OF USE” (Dana-Farber Cancer Institute, Inc., priority 2015, published 2019).
# What was measured:
# Her3 [1] = target: T1, Her3 (Homo sapiens, UniProt P21860); experiment: Her3 protein degradation by Western blot (immunoblotting); format: cell-based; set-up: endogenous in cells; host or cells: PC9-GR4; Ovacar 8; key: +: Her3 protein was degraded; −: Her3 protein was not degraded; conditions: PC9-GR4 or Ovacar 8 cell lines, 2 μM, 4 hours and 8 hours
# T1 sequence (P21860 20-1342): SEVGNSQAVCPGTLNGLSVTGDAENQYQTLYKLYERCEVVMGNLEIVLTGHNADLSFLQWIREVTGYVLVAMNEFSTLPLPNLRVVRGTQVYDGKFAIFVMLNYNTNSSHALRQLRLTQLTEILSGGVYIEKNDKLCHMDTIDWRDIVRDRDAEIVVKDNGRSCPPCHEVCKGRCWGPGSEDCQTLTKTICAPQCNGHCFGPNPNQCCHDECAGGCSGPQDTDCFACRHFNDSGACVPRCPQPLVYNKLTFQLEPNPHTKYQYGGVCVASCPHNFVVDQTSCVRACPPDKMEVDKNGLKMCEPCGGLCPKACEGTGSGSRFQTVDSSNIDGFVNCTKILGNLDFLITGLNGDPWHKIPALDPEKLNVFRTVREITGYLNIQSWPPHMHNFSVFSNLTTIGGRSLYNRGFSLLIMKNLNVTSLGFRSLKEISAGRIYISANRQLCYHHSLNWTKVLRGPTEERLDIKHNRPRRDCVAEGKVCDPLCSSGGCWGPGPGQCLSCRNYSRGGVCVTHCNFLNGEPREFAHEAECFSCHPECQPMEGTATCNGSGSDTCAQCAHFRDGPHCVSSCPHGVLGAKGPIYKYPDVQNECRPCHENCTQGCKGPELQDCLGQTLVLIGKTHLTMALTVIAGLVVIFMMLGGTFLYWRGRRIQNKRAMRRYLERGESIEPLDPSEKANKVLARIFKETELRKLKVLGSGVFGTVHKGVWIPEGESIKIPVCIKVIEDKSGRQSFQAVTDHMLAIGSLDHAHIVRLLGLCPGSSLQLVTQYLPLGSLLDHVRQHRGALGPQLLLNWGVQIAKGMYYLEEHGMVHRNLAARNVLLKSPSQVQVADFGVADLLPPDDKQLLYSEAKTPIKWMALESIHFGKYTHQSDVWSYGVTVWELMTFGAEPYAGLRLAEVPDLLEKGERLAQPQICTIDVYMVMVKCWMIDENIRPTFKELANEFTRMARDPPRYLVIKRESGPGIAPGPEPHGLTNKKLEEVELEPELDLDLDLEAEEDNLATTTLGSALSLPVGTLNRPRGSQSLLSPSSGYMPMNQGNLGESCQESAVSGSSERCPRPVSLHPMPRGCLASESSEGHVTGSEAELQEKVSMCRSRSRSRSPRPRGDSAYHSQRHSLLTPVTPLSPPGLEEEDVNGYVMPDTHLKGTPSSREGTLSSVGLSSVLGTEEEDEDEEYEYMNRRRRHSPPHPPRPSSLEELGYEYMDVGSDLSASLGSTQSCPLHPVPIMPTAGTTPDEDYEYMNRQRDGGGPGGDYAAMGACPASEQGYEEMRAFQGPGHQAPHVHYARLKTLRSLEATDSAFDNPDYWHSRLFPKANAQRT
# Experimental: Cells are seeded at the desired density the day before treatment starts with bifunctional compounds of the application at various concentration. After 4 to 12 hrs, cells are washed with buffer and lysed. The lysates are centrifuged and the supernatant is collected. Protein concentrations are measured using a protein assay kit, such as the BCA protein assay kit, Pierce, catalog number 23225) and normalized. Samples are run on a SDS-PAGE gel, and transferred to a PVDF membrane. The PVDF membrane is probed with the appropriate antibody.
# Her3 protein degradation was assessed via Western blots after treatment of PC9-GR4 cell lines or Ovacar 8 cell lines with 2 μM of representative compounds for 4 hours and 8 hours.
# Cells were seeded at a density of 4×10̂5 per 6 cm plate the day before treatment started with representative compounds of the application at the indicated concentration. After 4 to 12 hrs, cells were washed with phosphate-buffered saline. Lysis buffer included 50 mM Tris-HCl, […], 150 mM NaCl, 1% NP-40, and 5 mM EDTA, pH 7.4+/−0.2, Roche PhosSTOP phosphatase inhibitor cocktail tablets and Roche Complete Protease inhibitor cocktail tablets. Cell lysis was accomplished by addition of lysis buffer for 5-10 min on ice. Lysates were centrifuged in a microcentrifuge at 14,000 r.p.m. for 15 min at 4° C., and the supernatant was collected. Protein concentrations were measured using BCA protein assay kit (Pierce, catalog number 23225) and normalized. Samples were run on a 4%-12% SDS-PAGE gel at 120 V. After transfer, the PVDF membrane was probed with anti-Her3 antibody, Santa Cruz, catalog number sc-285 at 1:1000 dilution.
# Her3 [2] = target: T1, Her3; experiment: LanthaScreen Eu kinase binding assay; set-up: purchased Life Technologies; conditions: read-out: Binding affinities (IC50)
# Experimental: Lantha screening is performed by following the method reported in Nature Chemical Biology, 10, 1006-1012 (2014).
# Binding affinities (IC 50) of representative compounds were measured by the Life Technologies LanthaScreen Eu kinase binding assay, which was previously reported (Xie T. et al., Nat. Chew. Biol. 2014, 10, 1006-1012).
# Lantha screening was performed by following the method reported in Nature Chemical Biology, 10, 1006-1012 (2014).
# 826-GR6 = experiment: Anti-proliferation assay (MTS cell viability); format: cell-based; conditions: 72 h, 826-GR6 cells, 3 d incubation, read-out: Cell lines (EC50, μM) 826-GR6
# Experimental: Cells are seeded and incubated for 3 d after bifunctional compounds of the application are added. Cell viability is measured via MTS Assay. This assay uses a colorimetric method to determine the number of viable cells based on the bioreduction of MTS by cells to a formazan product that is soluble in cell culture medium and can be detected spectrophotometrically. In a typical experiment, the supernatant is removed and replaced by 100 μl of RPMI media supplemented with MTS reagent and PMS. The plates are measured with Perkin Elmer EnVision after reaching an optical density (OD) of 1.0-2.0 at a wavelength of 490 nm. The cell numbers are normalized compared to DMSO control, and the EC50 values are calculated using GraphPad Prism.
# Five cell lines, PC9-GR4, 826-GR6, Ovacar 8, A549, and Ovacar 5 were grown and treated with representative compounds. Viability of the cells after the treatment was assessed by MTS assay.
# The anti-proliferation assay was carried out using 96-well clear bottom plates. […] Cell viability was measured via MTS Assay. This assay uses a colorimetric method to determine the number of viable cells based on the bioreduction of MTS by cells to a formazan product that is soluble in cell culture medium and can be detected spectrophotometrically. […] The plates were measured with Perkin Elmer EnVision after reaching an optical density (OD) of 1.0-2.0 at a wavelength of 490 nm. […]
Structure (SMILES),Her3 degradation (Her3 [1]),IC50 (Her3 [2]),EC50 (826-GR6)
COc1cc(Nc2c(C#N)cnc3cc(OCCCN4CCN(CC(=O)NCCOCCOCCOCCNC(=O)COc5cccc6c5C(=O)N(C5CCC(=O)NC5=O)C6=O)CC4)c(OC)cc23)c(Cl)cc1Cl (stereo not drawn) [Compound CY1],−,< 10 nM,
COc1cc(Nc2c(C#N)cnc3cc(OCCCN4CCN(C(=O)CCCNC(=O)COc5cccc6c5C(=O)N(C5CCC(=O)NC5=O)C6=O)CC4)c(OC)cc23)c(Cl)cc1Cl (stereo not drawn) [Compound CY2],−,< 10 nM,
CCOc1cc2ncc(C#N)c(Nc3ccc(OCc4ccccn4)c(Cl)c3)c2cc1NC(=O)CCOCCOCCNc1cccc2c1C(=O)N(C1CCC(=O)NC1=O)C2=O (stereo not drawn) [Compound CY3],−,,
CCOc1cc2ncc(C#N)c(Nc3ccc(OCc4ccccn4)c(Cl)c3)c2cc1NC(=O)CCOCCOCCOCCNc1cccc2c1C(=O)N(C1CCC(=O)NC1=O)C2=O (stereo not drawn) [Compound CY4],−,,
CCOc1cc2ncc(C#N)c(Nc3ccc(OCc4ccccn4)c(Cl)c3)c2cc1NC(=O)CCOCCOCCOCCOCCOCCNc1cccc2c1C(=O)N(C1CCC(=O)NC1=O)C2=O (stereo not drawn) [Compound CY5],−,,
COc1cc2ncnc(Nc3cccc(Cl)c3F)c2cc1OC1CCN(CC(=O)NCCOCCOCCNc2cccc3c2C(=O)N(C2CCC(=O)NC2=O)C3=O)CC1 (stereo not drawn) [Compound CY10],−,,
COc1cc2ncnc(Nc3cccc(Cl)c3F)c2cc1OC1CCN(CC(=O)NCCOCCOCCOCCNc2cccc3c2C(=O)N(C2CCC(=O)NC2=O)C3=O)CC1 (stereo not drawn) [Compound CY11],−,,

# Continued, in another order:
Her3 degradation (Her3 [1]),IC50 (Her3 [2]),Structure (SMILES),EC50 (826-GR6)
−,< 10 nM,COc1cc(Nc2c(C#N)cnc3cc(OCCCN4CCN(CCOCCOCCNc5cccc6c5C(=O)N(C5CCC(=O)NC5=O)C6=O)CC4)c(OC)cc23)c(Cl)cc1Cl (stereo not drawn) [Compound CY6],5 to 15 µM
−,< 10 nM,COc1cc(Nc2c(C#N)cnc3cc(OCCCN4CCN(CCOCCOCCOCCNc5cccc6c5C(=O)N(C5CCC(=O)NC5=O)C6=O)CC4)c(OC)cc23)c(Cl)cc1Cl (stereo not drawn) [Compound CY7],5 to 15 µM
−,,COc1cc(Nc2c(C#N)cnc3cc(OCCCOCCOCCOCCNc4cccc5c4C(=O)N(C4CCC(=O)NC4=O)C5=O)c(OC)cc23)c(Cl)cc1Cl (stereo not drawn) [Compound CY8],
+,10 to 100 nM,COc1cc(Nc2c(C#N)cnc3cc(OCCCOCCOCCOCCOCCNc4cccc5c4C(=O)N(C4CCC(=O)NC4=O)C5=O)c(OC)cc23)c(Cl)cc1Cl (stereo not drawn) [Compound CY9],
